Data published in patent publication US20100075907A1, “NEUROMEDIN U RECEPTOR AGONISTS AND USES THEREOF” (priority 2006, published 2010).
Starred links: 1 amine or outer side, 2 acyl side, 3 side chain; linkers in the order of their positions; H or OH if unused. Residues, ends and D or L forms follow the SMILES beside them. *: point of attachment. X1 = CC(C)CCC[C@@H](C)[C@H]1CC[C@H]2[C@@H]3CC=C4C[C@@H](OC(=O)C*)CC[C@]4(C)[C@H]3CC[C@]12C; X2 = CCN1C(=O)CC(SC[C@H](NC(C)=O)C(=O)NCCCOCCOCCOCCCN*)C1=O; Succinimide(1-Et,3-yl) = CCN1C(=O)CC(*)C1=O; Suc = O=C(CCC(=O)[*:2])[*:1]

Columns and labels:
[1] = biological target: T1, Mouse NMUR1-CTG (Mus musculus, UniProt O55040); test: FLIPR calcium mobilization assay, mouse NMUR1-CTG; type: cell-based; set-up: expressed in transfected cells; host or cells: FLP-In CHO or HEK-293 FLP-In cells (pcDNA5); settings: for % Activity: maximum response at 1 μM compared to hNMU-25; for % Activity / EC50: mouse NMUR1-CTG; for EC50: FLIPR
T1 sequence (O55040 1-428): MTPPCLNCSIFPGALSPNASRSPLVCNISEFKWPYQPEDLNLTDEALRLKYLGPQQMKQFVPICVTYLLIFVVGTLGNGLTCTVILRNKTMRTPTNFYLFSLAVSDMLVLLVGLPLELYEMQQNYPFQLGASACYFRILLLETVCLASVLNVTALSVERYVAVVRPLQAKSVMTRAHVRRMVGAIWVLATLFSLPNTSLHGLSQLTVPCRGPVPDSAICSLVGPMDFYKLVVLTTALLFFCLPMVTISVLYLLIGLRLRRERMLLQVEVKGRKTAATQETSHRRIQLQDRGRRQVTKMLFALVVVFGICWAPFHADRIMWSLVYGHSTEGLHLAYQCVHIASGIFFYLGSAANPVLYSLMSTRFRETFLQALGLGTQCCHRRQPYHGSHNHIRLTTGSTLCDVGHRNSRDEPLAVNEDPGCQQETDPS
Excerpt: (§1) Human, mouse or rat cDNAs encoding NMUR1 or NMUR2 (as described in Howard et al. Nature 406: 70-74 (2000) were subcloned in pcDNA5 (Invitrogen) and transfected into FLP-In CHO cells and HEK-293 FLP-In cells purchased from Invitrogen (Carlsbad, Calif.) using lipofectamine (Invitrogen). The Flp-In system allows integration and expression of a particular gene of interest at a specific genomic location utilizing the Flp recombinase from yeast. The transfected cells were selected by growth in medium containing 200 μg/mL hygromycin (Invitrogen). Populations were frozen at early passage numbers, and these stocks were used for further studies. Stable clones that expressed the mRNAs were identified functionally by FLIPR as well as by RT-PCR. […] Two different rodent NMUR1 cell lines were thus generated: one with the codon as predicted from the genomic databases and another cell line with an engineered methionine (ATG) as the start codon. Additionally, stable cell lines expressing the human receptors were generated in HEK-293/aeq17 cells which stably express the aequorin gene under the CMV promoter. The human NMUR2 cDNA was cloned into pcDNA3.1 and human NMUR1 was subcloned into pIRES-puro (Clontech, Mountain View, Calif.), after transfection cells were selected in media containing G418 and either hygromycin (NMUR2) or puromycin (NMUR1).
(§2) The NMU receptors signal primarily through Gαq/11 proteins; therefore calcium mobilization assays can be utilized for functional activity.
(§3) Stable cell lines expressing human and or rodent NMUR1 or human NMUR2 receptors were plated at a density of 12,000 cells per well overnight on poly-lysine coated 384-well black-walled plates. The following day, the media was removed from the plates and the cells were subsequently loaded with Fluo-3 (Molecular Probes), a calcium sensitive dye, diluted in FLIPR buffer (1× Hank's buffered saline containing 20 mM HEPES, 0.1% BSA, 2.5 mM probenecid (Sigma) and 1.6 mM TR40). All reagents are from Invitrogen unless otherwise noted. Peptide stocks were resuspended in DMSO at a stock concentration of 2 mM and diluted in FLIPR buffer on the day of the experiment to a 4 μM working stock solution.
(§4) After a 90 minute incubation at room-temperature, cell plates were loaded onto a FLIPR (Molecular Devices) to monitor cellular fluorescence (excitation=488 nm; emission=540 nm) before and after compound/peptide addition. Eight to twelve point dose responses were tested on NMUR-expressing cell lines using FLIPR with 1 μM peptide as the highest dose. The response after peptide addition was taken as the maximum fluorescence units minus the fluorescence immediately prior to stimulation for each well. EC50 values were calculated using GraphPad Prism (San Diego, Calif.) software.
(§5) In vitro responses of Neuromedin U receptor agonists (NMU1 to NMU25) in the FLIPR assay for human (Table 3), mouse (Table 4) and rat (Table 5) NMUR1 and NMUR2. EC50s are reported in nM values. Percent activity refers to the maximum response at 1 μM compared to the hNMU-25 response at the same concentration. NT=not tested.

[2] = biological target: T2, hNMUR2 (Homo sapiens, UniProt Q9GZQ4); test: FLIPR calcium mobilization assay, human NMUR2; type: cell-based; set-up: expressed in transfected cells; host or cells: FLP-In CHO or HEK-293 FLP-In cells (pcDNA5); HEK-293/aeq17 lines (pcDNA3.1) were also made; settings: human NMUR2; for EC50: FLIPR; for % Activity: maximum response at 1 μM compared to hNMU-25
T2 sequence (Q9GZQ4 whole entry): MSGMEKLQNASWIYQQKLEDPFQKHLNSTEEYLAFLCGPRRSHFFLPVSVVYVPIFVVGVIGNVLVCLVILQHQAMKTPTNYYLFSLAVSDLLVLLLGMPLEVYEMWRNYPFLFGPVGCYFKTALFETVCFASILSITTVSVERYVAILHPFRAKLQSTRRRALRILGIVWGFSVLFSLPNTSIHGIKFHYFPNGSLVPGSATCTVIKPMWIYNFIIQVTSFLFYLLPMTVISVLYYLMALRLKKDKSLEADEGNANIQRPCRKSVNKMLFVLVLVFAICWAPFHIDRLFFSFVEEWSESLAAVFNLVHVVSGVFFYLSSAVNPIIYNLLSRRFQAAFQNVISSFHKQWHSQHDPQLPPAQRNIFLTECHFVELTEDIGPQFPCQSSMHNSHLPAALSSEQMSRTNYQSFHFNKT
Excerpt: as §1, §2, §3, §4, §5

[3] = biological target: T2, hNMUR2; test: 125I-hNMU-25 binding assay, human NMUR2 membranes; set-up: expressed in transfected cells; host or cells: HEK-293 FLP-In cells (pcDNA5); HEK-293/aeq17 lines (pcDNA3.1) were also made; % inhibition of NMU-25 binding / % Activity: concentration or dose not given beside the values
Method: Confluent cell monolayers expressing NMU receptors (the HEK cells described above) were harvested with phosphate buffered saline, collected by centrifugation, and resuspended in membrane buffer (50 mM TrisCl pH 7.4, 5 mM MgCl2, 1× Protease Inhibitor Cocktail, 10 μM phosphoramidon). After the cell pellet was homogenized, the solution was centrifuged at 18,000 rpm for 20 minutes at 4° C. The pellet was resuspended in membrane buffer to yield a final concentration of 0.5-5 μg/μL of membrane and stored at −80° C.
Experiments were performed in assay buffer (25 mM TrisCl, pH 7.4, 10 mM MgCl2, 2 mM EDTA, 1× Protease Inhibitor Cocktail, 100 μg/mL Bacitricin, 10 μM phosphoramidon) in 200 μL volumes in a 96-well format using 2-5 μg of membrane and 0.1 nM ^125I-hNMU-25 (about 12,000 cpm/well). For non-specific binding, 1 μM hNMU-25 was added. About 5 μL of peptides were added to measure antagonist activity, and the entire reaction was incubated at room temperature with shaking for 80 minutes. The reaction was terminated by rapid filtration through 0.3% poly-ethylenimine presoaked Millipore 96-well filter plates and washed with ice-cold buffer (5 mM TrisCl pH 7.4, 10 mM MgCl2, 2.5 mM EDTA, 0.04% Triton X-100). Plates were air-dried overnight at room temperature and recovered radioactivity was determined by standard scintillation counting. IC50 values were determined using GraphPad Prism software.
Concentration-response curves and radioligand-binding data were fitted using Prism (GraphPad Software). Results are summarized below in Tables 8 and 9.

Molecule | % Activity [1] | EC50 [2] | % Activity [2] | further results
CCN1C(=O)CC(SC[C@H](NC(C)=O)C(=O)NCC(=O)N[C@@H](Cc2ccc(O)cc2)C(=O)N[C@@H](Cc2ccccc2)C(=O)N[C@@H](CC(C)C)C(=O)N[C@@H](Cc2ccccc2)C(=O)N[C@@H](CCCNC(=N)N)C(=O)N2CCC[C@H]2C(=O)N[C@@H](CCCNC(=N)N)C(=O)N[C@@H](CC(N)=O)C(N)=O)C1=O (stereo partly shown) [NMU6] (Ac-C(Succinimide(1-Et,3-yl))GYFLFRPRN-NH2) | 100% | 1.5 nM | 100% | 
CCN1C(=O)CC(SC[C@H](NC(C)=O)C(=O)N[C@@H](Cc2ccccc2)C(=O)N[C@@H](CCCNC(=N)N)C(=O)N[C@H](C(=O)N[C@@H](CC(=O)O)C(=O)N[C@@H](CCC(=O)O)C(=O)N[C@@H](CCC(=O)O)C(=O)N[C@@H](Cc2ccccc2)C(=O)N[C@@H](CCC(N)=O)C(=O)N[C@@H](CO)C(=O)N2CCC[C@H]2C(=O)N[C@@H](Cc2ccccc2)C(=O)N[C@@H](C)C(=O)N[C@@H](CO)C(=O)N[C@@H](CCC(N)=O)C(=O)N[C@@H](CO)C(=O)N[C@@H](CCCNC(=N)N)C(=O)NCC(=O)N[C@@H](Cc2ccc(O)cc2)C(=O)N[C@@H](Cc2ccccc2)C(=O)N[C@@H](CC(C)C)C(=O)N[C@@H](Cc2ccccc2)C(=O)N[C@@H](CCCNC(=N)N)C(=O)N2CCC[C@H]2C(=O)N[C@@H](CCCNC(=N)N)C(=O)N[C@@H](CC(N)=O)C(N)=O)C(C)C)C1=O (stereo partly shown) [NMU8] (Ac-C(Succinimide(1-Et,3-yl))FRVDEEFQSPFASQSRGYFLFRPRN-NH2) | 100% |  | 100% | 
CC(=O)N[C@@H](CSCC(=O)O[C@H]1CC[C@@]2(C)C(=CC[C@H]3[C@@H]4CC[C@H]([C@H](C)CCCC(C)C)[C@@]4(C)CC[C@@H]32)C1)C(=O)NCC(=O)N[C@@H](Cc1ccc(O)cc1)C(=O)N[C@@H](Cc1ccccc1)C(=O)N[C@@H](CC(C)C)C(=O)N[C@@H](Cc1ccccc1)C(=O)N[C@@H](CCCNC(=N)N)C(=O)N1CCC[C@H]1C(=O)N[C@@H](CCCNC(=N)N)C(=O)N[C@@H](CC(N)=O)C(N)=O [NMU11] (Ac-C(X1)GYFLFRPRN-NH2) | 65.0% |  | 37.3% | 
CCN1C(=O)CC(SC[C@H](NC(C)=O)C(=O)NCCCOCCOCCOCCCNC(=O)CCC(=O)N[C@@H](Cc2ccccc2)C(=O)N[C@@H](CC(C)C)C(=O)N[C@@H](Cc2ccccc2)C(=O)N[C@@H](CCCNC(=N)N)C(=O)N2CCC[C@H]2C(=O)N[C@@H](CCCNC(=N)N)C(=O)N[C@@H](CC(N)=O)C(N)=O)C1=O (stereo partly shown) [NMU15, Ac-C1-Ttds-FLFRPRN-CONH2] ({X2-Suc}-FLFRPRN-NH2) | 100% |  | 101% | 
CCN1C(=O)CC(SC[C@H](NC(C)=O)C(=O)N[C@@H](C)C(=O)N[C@@H](CO)C(=O)N[C@@H](CCC(N)=O)C(=O)N[C@@H](CO)C(=O)N[C@@H](CCCNC(=N)N)C(=O)NCC(=O)N[C@@H](Cc2ccc(O)cc2)C(=O)N[C@@H](Cc2ccccc2)C(=O)N[C@@H](CC(C)C)C(=O)N[C@@H](Cc2ccccc2)C(=O)N[C@@H](CCCNC(=N)N)C(=O)N2CCC[C@H]2C(=O)N[C@@H](CCCNC(=N)N)C(=O)N[C@@H](CC(N)=O)C(N)=O)C1=O (stereo partly shown) [NMU17] (Ac-C(Succinimide(1-Et,3-yl))ASQSRGYFLFRPRN-NH2) | 116.6% | 1.5 nM | 99.8% | EC50 [1]: 2.9 nM
CCN1C(=O)CC(SC[C@H](NC(C)=O)C(=O)N[C@@H](Cc2ccccc2)C(=O)N[C@@H](CCC(N)=O)C(=O)N[C@@H](CO)C(=O)N2CCC[C@H]2C(=O)N[C@@H](Cc2ccccc2)C(=O)N[C@@H](C)C(=O)N[C@@H](CO)C(=O)N[C@@H](CCC(N)=O)C(=O)N[C@@H](CO)C(=O)N[C@@H](CCCNC(=N)N)C(=O)NCC(=O)N[C@@H](Cc2ccc(O)cc2)C(=O)N[C@@H](Cc2ccccc2)C(=O)N[C@@H](CC(C)C)C(=O)N[C@@H](Cc2ccccc2)C(=O)N[C@@H](CCCNC(=N)N)C(=O)N2CCC[C@H]2C(=O)N[C@@H](CCCNC(=N)N)C(=O)N[C@@H](CC(N)=O)C(N)=O)C1=O (stereo partly shown) [NMU19] (Ac-C(Succinimide(1-Et,3-yl))FQSPFASQSRGYFLFRPRN-NH2) | 110.8% |  | 105% | 
Ac-C2FRVDEEFQSPFASQSRGYFLFRPRN-CONH2 [NMU9] ({Ac-C(PEG 40 kDa)}-FRVDEEFQSPFASQSRGYFLFRPRN-NH2) [C2 = Cys(PEG)240 kDa from Nektar (mPEG2-MAL-40 k)] |  | 91.1 nM | 94.3% | 
Ac-C4-C4-FRVDEEFQSPFASQSRGYFLFRPRN-CONH2 ({Ac-C(PEG 20 kDa)-C(PEG 20 kDa)}-FRVDEEFQSPFASQSRGYFLFRPRN-NH2) [NMU23, C4 = Cys(PEG)20 kDa] | 50.9% |  |  | EC50 [1]: 770 nM
H-FRVDEEFQSPFASQSRGYFLFRPRN-NH2 [hNMU-25, reference compound] |  |  |  | IC50 ([1]; functional data, mouse R1-CTG): 2.9 nM; % Activity ([3]; Table 9, HEK-hR2, binding): 100%; IC50 ([3]; binding, human R2): 0.056 nM
